Experimental findings from patent US4629733A, “Indolinones and pharmaceutical compositions containing same” (Dr. Karl Thomae GmbH, priority 1980, dated 1986) are described below.

One series addresses phosphodiesterase (PDE). Kind of series: PDE inhibition. Conditions: 10,000×g supernatant of human blood platelets, 1 μmol/liter 3H-cAMP, pH 7.4, 15 minutes at 37° C. It is filed as biochemical. The method, then: cAMP is hydrolysed to AMP by phosphodiesterase (PDE) from various sources, including blood platelets. This hydrolysis is inhibited by PDE inhibitors according to the concentration.
The phosphodiesterase used is the 10,000×g supernatant of human blood platelets which have been frozen with water and thawed out again. An amount of 0.3 ml of a mixture which contains 0.1 mol/liter of tri-hydroxy-aminomethane (pH 7.4), 3 mmol/liter of magnesium chloride, 1 mmol/liter of AMP, 1 μmol/liter of ^3 H-cAMP (specific activity about 10 MBq/μmol), PDE as well as the substance to be tested, and water for the control is incubated for 15 minutes at 37° C. The incubation is stopped by the addition of 0.5 ml of zinc sulphate (0.266 mol/liter) and 0.5 ml of barium hydroxide (0.226 mol/liter), the precipitate is centrifuged, and the activity remaining in the supernatant of the unreacted ^3 H-cAMP is determined. From a comparison of the substance preparations and the control preparations, the concentration for a 50% inhibiting activity (IC50) of the respective substance was calculated.

Another series concerns mice. Kind of series: Acute toxicity. Conditions: observation time 14 days. It is filed as in vivo. Here is the method:
The acute toxicity of the substances to be tested was determined in groups of 5 mice each each after peroral administration of a dose of 250 mg/kg or 1000 mg/kg (observation time: 14 days).

A further series relates to conscious mice. Kind of series: Determination of the prolongation of bleeding time. It counts as in vivo. The following applies: Mus musculus, po, 1 h, 10 mg/kg orally, after one hour, versus control group. The method, then: To measure the bleeding time, 10 mg/kg of the test compound is administered orally to conscious mice. After one hour 0.5 mm of the tip of the tail of the mouse is cut off, and the droplets of blood are gently removed with filter paper every 30 seconds. The number of drops of blood give a measure of the bleeding time (5 animals/experiment). The values in the following table represent the prolongation as a percentage as compared to a control group: […]

What is called IC50 is the concentration needed to halve the response being measured. With `CC1(C)C(=O)Nc2ccc(OCCCC[S+]([O-])c3ccccc3)cc21` (stereo not drawn) [A, 3,3-Dimethyl-5-(4-phenylsulfinyl-butoxy)-indolinone-2], the IC50 on phosphodiesterase (PDE) worked out at 2.5 µM. Moreover, the “Acute toxicity per os (animals died)” value in the series on mice (250 mg/kg peroral) is on record as 0 out of 5.

Take `CC1(C)C(=O)Nc2ccc(OCCCC[S+]([O-])c3ccc(Cl)c(Cl)c3)cc21` (stereo not drawn) [B, 3,3-Dimethyl-5-[4-(3,4-dichlorophenylsulfinyl)-butoxy]-indolinone-2]: on phosphodiesterase (PDE), the IC50 came to 0.3 µM. In the series on conscious mice, this compound returned a change in vivo at 10 mg/kg of 59%. For the same compound, the “Acute toxicity per os (animals died)” value with mice (1000 mg/kg peroral) is 0 out of 6.

At phosphodiesterase (PDE), `CC1(C)C(=O)Nc2ccc(OCCCCSc3ccc(C4CCCCC4)cc3)cc21` [C, 3,3-Dimethyl-5-[4-(4-cyclohexylphenylmercapto)-butoxy]-indolinone-2] gave an IC50 of 2.5 µM. In the series with mice (1000 mg/kg peroral), the “Acute toxicity per os (animals died)” value is 0 out of 6.

Compound `CC1(C)C(=O)Nc2ccc(OCCCC[S+]([O-])c3ccc(-c4ccccc4F)cc3)cc21` (stereo not drawn) [D, 3,3-Dimethyl-5-[4-(2'-fluoro-4-biphenylylsulfinyl)-butoxy]-indolinone-2] returned an IC50 against phosphodiesterase (PDE) of 0.027 µM. The change in vivo at 10 mg/kg with conscious mice was > 249%. Moreover, the “Acute toxicity per os (animals died)” value in the series on mice (1000 mg/kg peroral) is 0 out of 6.

`COc1ccc([S+]([O-])CCCCOc2ccc3c(c2)C(C)(C)C(=O)N3)cc1OC` (stereo not drawn) [E, 3,3-Dimethyl-5-[4-(3,4-dimethoxyphenylsulfinyl)-butoxy]-indolinone-2] gave an IC50 on phosphodiesterase (PDE) of 0.54 µM. Further, in the series on conscious mice, the change in vivo at 10 mg/kg is > 198%. For the same compound, in the series on mice (1000 mg/kg peroral), the “Acute toxicity per os (animals died)” value is reported as 0 out of 6.

Compound `COc1cc2ccc(S(=O)(=O)CCCCOc3ccc4c(c3)C(C)(C)C(=O)N4)cc2cc1OC` [F, 3,3-Dimethyl-5-[4-(6,7-dimethoxy-naphthyl-(2)-sulfonyl)butoxy]-indolinone-2] gave an IC50 on phosphodiesterase (PDE) of 0.24 µM. For the same compound, the change in vivo at 10 mg/kg in the series with conscious mice was > 232%. Further, in the series with mice (1000 mg/kg peroral), the “Acute toxicity per os (animals died)” value is on record as 0 out of 6.

For `CC(C)(C)c1cc([S+]([O-])CCCCOc2ccc3c(c2)C(C)(C)C(=O)N3)cc(C(C)(C)C)c1O` (stereo not drawn) [G, 3,3-Dimethyl-5-[4-(3,5-di-tert.butyl-4-hydroxy-phenylsulfinyl)-butoxy]-indolinone-2], it took 0.07 µM to reach half-maximal inhibition against phosphodiesterase (PDE) (IC50). In addition, the change in vivo at 10 mg/kg in the series with conscious mice was determined as 154%. Besides, the “Acute toxicity per os (animals died)” value in the series on mice (1000 mg/kg peroral) is 0 out of 6.

On phosphodiesterase (PDE), `CC(C)(C)c1cc(S(=O)(=O)CCCCOc2ccc3c(c2)C(C)(C)C(=O)N3)cc(C(C)(C)C)c1O` [H, 3,3-Dimethyl-5-[4-(3,5-di-tert.butyl-4-hydroxy-phenylsulfonyl)-butoxy]-indolinone-2] came in with an IC50 of 0.059 µM. The same compound came in with a change in vivo at 10 mg/kg with conscious mice of 149%. In the series with mice (1000 mg/kg peroral), the “Acute toxicity per os (animals died)” value is 0 out of 6.

With `COc1ccc([S+]([O-])CCCCOc2ccc3c(c2)C(C)(C)C(=O)N3)cc1` (stereo not drawn) [I, 3,3-Dimethyl-5-[4-(4-methoxyphenyl-sulfinyl)-butoxy]-indolinone-2], inhibition against phosphodiesterase (PDE) was half-maximal at 0.5 µM (IC50). The change in vivo at 10 mg/kg with conscious mice is > 214%. For the same compound, in the series on mice (1000 mg/kg peroral), the “Acute toxicity per os (animals died)” value is listed as 0 out of 6.

With `CC(C)(C)c1ccc([S+]([O-])CCCCOc2ccc3c(c2)C(C)(C)C(=O)N3)cc1` (stereo not drawn) [K, 3,3-Dimethyl-5-[4-(4-tert.butyl-phenyl-sulfinyl)-butoxy]-indolinone-2], on phosphodiesterase (PDE), it took 0.27 µM to reach half-maximal inhibition (IC50). Besides, the change in vivo at 10 mg/kg in the series on conscious mice is > 285%. Also, the “Acute toxicity per os (animals died)” value in the series with mice (1000 mg/kg peroral) was 0 out of 6.

On to `COc1cc2ccc([S+]([O-])CCCCOc3ccc4c(c3)C(C)(C)C(=O)N4)cc2cc1OC` (stereo not drawn) [L, 3,3-Dimethyl-5-[4-(6,7-dimethoxy-naphthyl-(2)-sulfinyl)butoxy]-indolinone-2], for which, on phosphodiesterase (PDE), it took 0.24 µM to reach half-maximal inhibition (IC50). In the series with conscious mice, this compound came in with a change in vivo at 10 mg/kg of 102%. Moreover, the “Acute toxicity per os (animals died)” value in the series on mice (1000 mg/kg peroral) is recorded as 0 out of 6.

`CC1(C)C(=O)Nc2ccc(OCCCCSc3cc(Cl)c(O)c(Cl)c3)cc21` [M, 3,3-Dimethyl-5-[4-(3,5-dichloro-4-hydroxy-phenyl-mercapto)-butoxy]-indolinone-2] yielded a change in vivo at 10 mg/kg in the series on conscious mice of 140%. Moreover, the “Acute toxicity per os (animals died)” value in the series on mice (1000 mg/kg peroral) is 0 out of 6.

For `CC1(C)C(=O)Nc2ccc(OCCCC[S+]([O-])c3cc(Br)c(N)c(Br)c3)cc21` (stereo not drawn) [N, 3,3-Dimethyl-5-[4-(3,5-dibromo-4-amino-phenyl-sulfinyl)butoxy]-indolinone-2], the IC50 against phosphodiesterase (PDE) is 0.11 µM. Moreover, the change in vivo at 10 mg/kg with conscious mice is > 254%. Besides, the “Acute toxicity per os (animals died)” value with mice (1000 mg/kg peroral) was 0 out of 6.

`CC1(C)C(=O)Nc2ccc(OCCCC[S+]([O-])c3ccc4ccccc4c3)cc21` (stereo not drawn) [O, 3,3-Dimethyl-5-[4-(naphthyl-(2)-sulfinyl)-butoxy]-indolinone-2]: inhibition against phosphodiesterase (PDE) was half-maximal at 0.11 µM (IC50). The compound also showed a change in vivo at 10 mg/kg with conscious mice of 127%. Besides, in the series on mice (1000 mg/kg peroral), the “Acute toxicity per os (animals died)” value is on record as 0 out of 6.

`CC1(C)C(=O)Nc2ccc(OCCCC[S+]([O-])c3ccc(Cl)cc3)cc21` (stereo not drawn) [P, 3,3-Dimethyl-5-[4-(4-chlorophenylsulfinyl)-butoxy]-indolinone-2]: the concentration for half-maximal inhibition (IC50) against phosphodiesterase (PDE) was 0.36 µM. In addition, the change in vivo at 10 mg/kg in the series with conscious mice came out at 114%. The “Acute toxicity per os (animals died)” value in the series with mice (1000 mg/kg peroral) is 0 out of 6.

The compound `CC1(C)C(=O)Nc2ccc(OCCCCC[S+]([O-])c3ccc(C4CCCCC4)cc3)cc21` (stereo not drawn) [Q, 3,3-Dimethyl-5-[5-(4-cyclohexyl-phenyl-sulfinyl)-pentoxy]-indolinone-2] yielded a half-maximal inhibitory concentration (IC50) against phosphodiesterase (PDE) of 0.38 µM. For the same compound, the change in vivo at 10 mg/kg in the series with conscious mice was > 174%. The “Acute toxicity per os (animals died)” value in the series with mice (1000 mg/kg peroral) is 0 out of 6.

Compound `CC(C)(C)c1ccc(S(=O)(=O)CCCCOc2ccc3c(c2)C(C)(C)C(=O)N3)cc1` [R, 3,3-Dimethyl-5-[4-(4-tert.butyl-phenyl-sulfonyl)-butoxy]-indolinone-2] came in with an IC50 against phosphodiesterase (PDE) of 0.24 µM. Further, the change in vivo at 10 mg/kg in the series on conscious mice was > 242%. For the same compound, the “Acute toxicity per os (animals died)” value with mice (1000 mg/kg peroral) is 0 out of 6.

`CC1(C)C(=O)Nc2ccc(OCCCC[S+]([O-])c3ccc(C4CCCCC4)cc3)cc21` (stereo not drawn) [S, 3,3-Dimethyl-5-[4-(4-cyclohexyl-phenyl-sulfinyl)-butoxy]-indolinone-2]: at phosphodiesterase (PDE), 0.058 µM corresponded to half-maximal inhibition (IC50). The compound also yielded a change in vivo at 10 mg/kg in the series with conscious mice of 104%. The “Acute toxicity per os (animals died)” value in the series on mice (1000 mg/kg peroral) is listed as 0 out of 6.
